Patent US7235536B2, “Cellulose sulfate and other sulfated polysaccharides to prevent and treat papilloma virus infection and other infections” (Rush Presbyterian-St. Luke's Medical Center, priority 2000, dated 2007)

Assays:
[1] = system: Gardnerella vaginalis; test: Agar well growth inhibition on HBT bilayer agar plates; format: cell-based
Protocol: A fresh subculture of G. Vaginalis which is bacteria frequently associated with vaginitis was obtained after overnight growth (16 hours) on a V-agar plate and suspended in sterile phosphate buffered saline (PBS; pH 7.2) to achieve a turbidity of 0.5 (McFarland standard; approximately 10^8 CFU/ml). The suspension was diluted 10 fold and applied to HBT bilayer agar plates by swabbing the entire plate. The plate was allowed to dry for 2-3 min and small wells punched in the agar, 10 mm in diameter. Samples of cellulose sulfate were dissolved at 10 mg/ml in PBS and 0.2 ml placed in the agar wells. As control, 0.2 ml PBS was placed in one of the wells. Growth inhibition was indicated by a light area around the well.
The studies were repeated using various concentrations of cellulose sulfate (ranging from 10 mg/ml to 0.125 mg/ml) and 4 different Gardnerella vaginalis strains. […] The lowest initial concentration of cellulose sulfate at which growth inhibition occurred was 0.5 mg/ml.

[2] = system: Porphyromonas levii; test: Agar method MIC; format: cell-based; settings: for CS MIC: Agar
[3] = system: Prevotella disiens; test: Broth method MIC; format: cell-based; settings: for CS MIC: Broth (study 2)
[4] = system: Prevotella intermedia; test: Broth method MIC; format: cell-based; settings: for CS MIC: Broth (study 2)
[5] = system: HPV-11; test: RT-PCR ELISA for transient infection of human A431 cells, HPV-11; format: cell-based, human papilloma virus; settings: with virus (HPV-11)
Protocol: Cellulose sulfate and dextran sulfate were each prepared as a 2 mg/ml solution in 0.9% NaCl and tested for microbicidal activity using the in vitro HPV transient infection assay originally described by Smith and colleagues (Smith, L. H., C. Foster, M. E. Hitchcock, and R. Isseroff. 1993. In vitro HPV-11 infection of human foreskin. J. Invest. Dermatol. 101:292-295) with some modifications (Ludmerer, S. W., W. L. McClements, X. M. Wang, J. C. Ling, K. U. Jansen, and N. D. Christensen. 2000. HPV11 mutant virus-like parties elicit immune responses that neutralize virus and delineate a novel neutralizing domain. Virology 266:237-245). An ELISA-based read-out of Optical Density (OD) values using alkaline phosphatase cleavage of the substrate p-nitrophenyl phosphate was also used to measure HPV infection as described below.
A modification of the RT-PCR assay that incorporates an ELISA-based read-out (Boehringer-Mannheim) was also included to assess microbicidal activity. Replicate cell cultures of A431 cells were infected with an aliquot of infectious HPV virions as described above. After 4 days of culture, cells were harvested and RNA extracted. RNA was subjected to RT using downstream anti-sense (reverse) primers for HPV-11 or HPV-40 and β-actin (as a control/housekeeping cellular transcript) to initiate cDNA synthesis. The cDNA was processed through 2 sets of 30 cycles of PCR amplification using nested primers: the second set of cycles used digoxygenin (DIG)-dUTP to label the PCR products with DIG. DIG-labeled PCR products were denatured then renatured together with a biotinylated oligonucleotide specific for the targeted PCR product. Biotinylated products were detected in ELISA with plates coated with streptavidin (to capture the biotinylated target PCR product) then anti-DIG antibody and substrate. Labeled PCR products were added directly to ELISA plates, or titrated at 10-fold dilutions in duplicate for each cell culture for each virus dilution.

[6] = system: BPV-1; test: BPV-1 focus-forming assay, virus preincubated with compound (Table C); format: cell-based, bovine papilloma virus; settings: C127 cell line
Protocol: In a similar study using the BPV-1 focus forming assay, the effect of the cellulose sulfate and dextran sulfate on BPV was tested. In this study, cellulose sulfate tested was as described above. Dextran sulfate used was from Dextran Products Limited (Lot DSM-122) prepared using dextan of average Mr of about 500,000 (based on viscosity) and is estimated to have a final average Mr greater than about 500,000 and may be about 1 to 1.1 million.
Microbicidal activity of the compounds was tested using the well-characterized BPV-1 focus-forming assay (Dvoretzky, I., R. Shober, S. K. Chattopadhyay, and D. R. Lowy. 1980. A quantitative in vitro focus assay for bovine papilloma virus. Virology 103:369-375), with modifications for microbicide testing (Hermonat, P. L., (1992) supra; Howett, M. K., et al. (1999) supra. The terms inhibiting or microbicidal activity when used are intended to refer broadly to microbe infection and/or microbe inactivating effect.
Aliquots of BPV-1 containing approximately 100-200 focus-forming units were preincubated with dilutions of compounds for 10 min at 37° C. prior to addition to cultures of mouse C127 cells. Cultures of C127 cells were set up in T25 tissue culture flasks (Corning, N.Y.), containing 3×10^5 cells per flask. Virus-compound mixtures in a total of 50 μl were then added to flasks in 1 ml of media, and an additional 3 ml of media added after 24 hrs culture. Media was changed every 3-4 days for a period of 2 weeks. Foci were enumerated following staining of the monolayer with crystal violet and counting stained foci microscopically. Each concentration of compound was tested in duplicate, and the mean±SD of foci number for the preincubation virus-drug concentration for each compound is shown below as Table C.
Clones were derived from the parental C127 cell line because of the consistent failure of BPV-1 to induce foci following several cell passages of the uncloned parental cell line. One clone, labeled C127-D10, which produced foci upon BPV-1 infection, was chosen for a repeat testing of the compounds. When this clone was tested for microbicidal activity, less compound was required to achieve high reduction in BPV-1-induced foci when compared to the uncloned parental-C127 cells.

[7] = system: Prevotella bivia; test: Broth method MIC; format: cell-based
[8] = system: Peptostreptococcus tetradius; test: Broth method MIC; format: cell-based; settings: for CS MIC: Broth (study 2)

## sodium cellulose sulfate
[1]; 10 mg/ml in PBS, 0.2 ml in agar well
  area of growth inhibition around the well, diameter: 6 mm
[1]; 4 different Gardnerella vaginalis strains, 10 mg/ml to 0.125 mg/ml
  growth inhibition: Dose dependent inhibition
[1]; 4 different Gardnerella vaginalis strains, 10 mg/ml to 0.125 mg/ml tested
  lowest initial concentration at which growth inhibition occurred: 0.5 mg/mL
[2]; Example 8, agar, 48 hours anaerobic, highest tested 625 μg/ml
  lowest concentration of compound that inhibited growth: 40 µg/mL
[2]; rma# 11425
  CS MIC: >625 µg/mL
[2]; rma# 11601
  CS MIC: 40 µg/mL
[3]; all strains
  growth inhibition: inhibited
[3]; rma# 11579
  CS MIC: 10000 µg/mL
[3]; rma# 11698
  CS MIC: 10000 µg/mL
[4]; all strains
  growth inhibition: inhibited
[4]; rma# 11142
  CS MIC: 10000 µg/mL
[4]; rma# 11168
  CS MIC: 10000 µg/mL
[5]; 10 μg/ml at viral pretreatment
  Mean (SD) of O.D. reading for RT-PCR ELISA, HPV-11 probe: 1.485 (0.045) O.D.
[5]; 100 μg/ml at viral pretreatment
  Mean (SD) of O.D. reading for RT-PCR ELISA, HPV-11 probe: 0.049 (0.001) O.D.
[5]; 1000 μg/ml at viral pretreatment
  Mean (SD) of O.D. reading for RT-PCR ELISA, HPV-11 probe: 0.038 (0.001) O.D.
[6]; 1 mg/ml
  inhibition of papilloma virus infectivity: complete inhibition
[6]; 10 to 100 μg/ml
  inhibition of papilloma virus infectivity: moderate to high inhibition
[7]; all strains
  growth inhibition: inhibited
[7]; rma# 11683, Broth (study 1)
  CS MIC: NI (not inhibited by 10 mg/ml (the highest concentration tested))
[7]; rma# 11683, Broth (study 2)
  CS MIC: 5000 µg/mL
[7]; rma# 11697, Broth (study 1)
  CS MIC: 600 µg/mL
[7]; rma# 11697, Broth (study 2)
  CS MIC: 5000 µg/mL
[8]; all strains
  growth inhibition: inhibited
[8]; rma# 11253
  CS MIC: 5000 µg/mL
[8]; rma# 11287
  CS MIC: 5000 µg/mL
